Test results from paper PMC12301332, “Biased antagonism of a series of bicyclic CXCR2 intracellular allosteric modulators” (Frontiers in Pharmacology, 2025).

How the values were obtained:
[1] = target: T1, CXCR2 (Homo sapiens, UniProt P25025); assay: Bias analysis (bias plot, bias index) of β-arrestin1 recruitment inhibition versus Gαi1 activation inhibition, navarixin as reference; format: cell-based; conditions: for bias index vs navarixin, statistical significance (H1): one-sample T-test; for differences in bias index between the various CXCR2 ligands (H2): one-way ANOVA followed by Tukey's test
T1 construct: expressed in transfected cells
T1 sequence (P25025 1-360): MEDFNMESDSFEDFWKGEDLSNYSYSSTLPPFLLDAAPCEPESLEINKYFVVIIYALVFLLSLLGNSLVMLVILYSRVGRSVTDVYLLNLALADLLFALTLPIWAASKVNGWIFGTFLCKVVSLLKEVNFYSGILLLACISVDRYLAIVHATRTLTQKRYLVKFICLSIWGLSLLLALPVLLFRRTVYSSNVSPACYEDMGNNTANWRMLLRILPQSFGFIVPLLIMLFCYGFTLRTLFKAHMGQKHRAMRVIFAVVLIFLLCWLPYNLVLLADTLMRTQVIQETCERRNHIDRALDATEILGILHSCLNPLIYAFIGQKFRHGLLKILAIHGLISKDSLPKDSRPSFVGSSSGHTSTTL
Description: For signaling bias calculations, constraints were set to bottom values equal to zero. The calculated top values generated by nonlinear fit log (inhibitor) vs response (three parameters) in GraphPad 10.2.1 were taken as Imax. […] The bias index values were calculated, as is shown in calculation 2. Briefly, log(Imax/IC50) was calculated. […] Finally, the bias index was calculated by subtracting the ∆log (Imax/IC50) of the tested compound from the stated reference pathway from that of the pathway of interest. […] The statistical significance of H1 was evaluated using a one-sample T-test with Benjamini-Hochberg correction applied for multiple comparisons, whereas H2 was assessed using a one-way ANOVA followed by Tukey’s test.
Bias index=∆LogImax/IC50P1:β−arr1−∆LogImax/IC50P2:Gai1 .
Bias plots are equimolar comparisons between the two pathways of interest.

[2] = target: T1, CXCR2; parameters: method as in Van Hoof et al., 2022; conditions: ref Van Hoof et al., 2022; cited from earlier work

Row | SMILES | bias index vs navarixin, statistical significance (H1) ([1]; CXCL1-, CXCL2-, CXCL5-, CXCL6-, and CXCL8-induced responses) | calcium mobilization antagonism [2] | bias index vs navarixin, statistical significance (H1) ([1]; CXCL1-induced responses) | bias index vs navarixin, statistical significance (H1) ([1]; CXCL2, CXCL5, and CXCL6 responses) | differences in bias index between the various CXCR2 ligands (H2) [1]
1 | CC(CO)Nc1nc(SCc2cccc(F)c2F)nc2oncc12 (stereo not shown) [MVH-24] | nonsignificantly different from navarixin | most potent |  |  | 
2 | CC(CO)Nc1nc(SCc2cccc(F)c2F)nc2cnccc12 (stereo not shown) [MVH-3] |  | potent | highly significant | nonsignificantly different from navarixin | statistically significant
3 | CC(CCO)Nc1nc(SCc2cccc(F)c2F)nc2[nH]nnc12 (stereo not shown) [MVH-33] |  |  |  |  | statistically significant
